Measurements: US4002674A (priority 1974, dated 1977)
Counter-ions that a name gives are not always drawn.

Legend:
[1] = test system: Newcastle disease virus (NDV); assay: microbe, parasite or virus in culture; assay type: cell-based, Newcastle disease virus; chick embryo tissue culture; conditions: for inhibition at 4 µg/mL / inhibition at 8 µg/mL / inhibition at 16 µg/mL: avian paramyxovirus 1, in Gallus gallus, 48 h, read-out: % Inhibition of NDV Multiplications
[2] = antiviral activity in vivo; conditions: no test details given

| Structure (SMILES) | inhibition at 4 µg/mL [1] [%] | inhibition at 8 µg/mL [1] [%] | inhibition at 16 µg/mL [1] [%] | antiviral activity in vivo [2] | antiviral activity compared with amantadine hydrochloride ([1]; in vitro, NDV, versus amantadine hydrochloride) | virus replication in the tissue culture ([1]; tissue culture containing above 4 μg/ml) |
| --- | --- | --- | --- | --- | --- | --- |
| NC12CC3CC(CC(C3)C1)C2 [Amantadine . HCl, amantadine hydrochloride, reference compound] | 0 | 0 | 0 |  |  |  |
| COC(=O)C12CCCC3CC(CCC31)C2 (stereo not drawn) [VI, Methyl 4-homoisotwistane-3-carboxylate] | 0 | 91.2 | 99.4 | potent antiviral activity in vivo | extremely superior | almost completely inhibited |
